Test results published in patent US20240009191A1, “METHOD AND COMPOSITION FOR THE TREATMENT OF DISEASE” (DIMERIX BIOSCIENCE PTY LTD, priority 2019, published 2024).

Columns and labels:
[1] = biological target: T1, CXCR2 (Homo sapiens, UniProt P25025); experiment: BRET Gi coupling, CXCR2/Rluc8 and Venus/mGsi without HA-AT1R, HEK293FT cells; assay type: cell-based; conditions: 100 nM CXCL8, 1 μM AngII, FIG. 1A
T1 sequence (P25025 1-360): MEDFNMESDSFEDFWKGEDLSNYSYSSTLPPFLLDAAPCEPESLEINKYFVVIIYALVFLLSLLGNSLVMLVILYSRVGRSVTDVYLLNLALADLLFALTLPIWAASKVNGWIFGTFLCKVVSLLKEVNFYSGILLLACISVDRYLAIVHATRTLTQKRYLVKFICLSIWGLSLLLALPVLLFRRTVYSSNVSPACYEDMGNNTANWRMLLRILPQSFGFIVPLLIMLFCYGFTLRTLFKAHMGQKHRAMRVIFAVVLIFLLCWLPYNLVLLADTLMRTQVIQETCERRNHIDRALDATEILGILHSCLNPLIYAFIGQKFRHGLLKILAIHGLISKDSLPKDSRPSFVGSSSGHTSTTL
Description: (§1) HEK293FT cells were seeded in 6-well plates at a density of approximately 700,000 cells/well and maintained at 37° C., 5% CO2 in Complete Media (DMEM containing 0.3 mg/ml glutamine, 100 IU/ml penicillin and 100 μg/ml streptomycin (Gibco/Thermo Fisher)) supplemented with 10% fetal calf serum (FCS; Bovogen). Transient transfections were carried out 24 h after seeding using FuGene6™ (Promega) according to manufacturer instructions. 24 h post-transfection, cells were washed with PBS, detached using 0.05% trypsin/0.53 mM EDTA, resuspended in HEPES-buffered phenol red free Complete Media containing 5% FCS and added to a poly-L-lysine-coated white 96-well microplate (Greiner Bio-One). 48 h post-transfection, bioluminescence resonance energy transfer (BRET) assays were carried out following pre-incubation of cells with EnduRen™ (Promega) at a final concentration of 30 μM, at 37° C., 5% CO2 for 2 h. BRET measurements were taken at 37° C. using the LUMlstar™ or CLARIOstar™ (BMG Labtech). Filtered light emissions were measured for 1 s in each of the ‘donor wavelength window’ (460-490 nm for LUMlstar™ or 410-490 nm for CLARIOstar™) and ‘acceptor wavelength window’ (520-550 nm for LUMlstar™ or 520-620 nm for CLARIOstar™).
The BRET signal observed between interacting proteins is normalized by subtracting the background BRET ratio. […]

[2] = biological target: T2, AT1R (Homo sapiens, UniProt P30556); experiment: BRET trafficking of AT1R/Rluc8 to Venus/Kras or Venus/Rab markers, absence of CXCR2; assay type: cell-based; conditions: 100 nM CXCL8, 1 μM AngII
T2 construct: expressed in transfected cells; host or cells: HEK293FT
T2 sequence (P30556 1-359): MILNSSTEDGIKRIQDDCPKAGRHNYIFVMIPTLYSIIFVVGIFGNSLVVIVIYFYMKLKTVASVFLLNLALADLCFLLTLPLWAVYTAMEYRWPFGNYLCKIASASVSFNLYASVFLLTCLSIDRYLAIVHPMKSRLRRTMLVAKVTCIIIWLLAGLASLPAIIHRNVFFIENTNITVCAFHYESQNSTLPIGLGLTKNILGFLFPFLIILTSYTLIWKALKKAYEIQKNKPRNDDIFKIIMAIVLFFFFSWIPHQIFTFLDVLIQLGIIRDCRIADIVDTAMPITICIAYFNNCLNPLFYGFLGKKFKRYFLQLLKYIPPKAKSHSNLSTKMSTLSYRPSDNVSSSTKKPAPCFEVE
Description: as §1
The BRET signal observed between interacting proteins is normalized by subtracting the background BRET ratio. This can be done in one of two ways (see Pfleger et al. (2006) Cell Signal 18:1664-1670; Pfleger et al. (2006) Nat Protoc 1:336-344): 1) the ratio of the 520-550 nm or 520-620 nm emission over the 460-490 nm or 410-490 nm emission for a cell sample containing only the donor construct is subtracted from the same ratio for a sample containing the interacting acceptor and donor fusion proteins; 2) the ratio of the 520-550 nm or 520-620 nm emission over the 460-490 nm or 410-490 nm emission for a cell sample treated with vehicle is subtracted from the same ratio for a second aliquot of the same cell sample treated with ligand. In the following examples, the second calculation will be used and the signal is described as ligand-induced BRET′. Furthermore, for data shown in FIGS. 4 to 20, all data points in a given set are corrected relative to the final data point prior to agonist treatment, which is fixed to zero. In keys on FIGS. 7 to 20, “>” means “followed by after 50 minutes”, with agonists added at time zero on the x-axes.
Referring now to FIG. 3 (published in Tiulpakov et al (2016) Mol. Endocrinol. 30, 889-904), the proximity of Rluc8-tagged receptors to Venus-tagged Kras plasma membrane marker, or Venus-tagged Rabs specific for distinct subcellular locations, is monitored in live cells and in real-time using BRET. The Rab markers are: Venus/Rab5 (5) for early endosomes; Venus/Rab4 (4) for early endosome recycling; Venus/Rab11a (11) for recycling endosomes; Venus/Rab7 (7) for late endosomes/lysosomes; Venus/Rab9 (9) for late endosome trafficking to the trans-Golgi network; Venus/Rab1 (1) for endoplasmic reticulum trafficking to the cis-Golgi; Venus/Rab6 (6) for Golgi apparatus and trans-Golgi network; or Venus/Rab8 (8) for trans-Golgi network to plasma membrane.

Angiotensin II [AngII]
ligand-induced BRET signal, CXCR2/Rluc8 and Venus/mGsi [1]: did not result in an increase
proximity of AT1R/Rluc8 to Venus/Rab6 (BRET) ([2]; Golgi apparatus to trans-Golgi network, FIG. 5I): little effect
proximity of AT1R/Rluc8 to Venus/Rab4 (BRET) ([2]; early endosome recycling, FIG. 5E): increase
proximity of AT1R/Rluc8 to Venus/Rab5 (BRET) ([2]; early endosomes, FIG. 5G): substantial increase
proximity of AT1R/Rluc8 to Venus/Rab1 (BRET) ([2]; endoplasmic reticulum to cis-Golgi, FIG. 5C): increase
proximity of AT1R/Rluc8 to Venus/Rab9 (BRET) ([2]; late endosome to trans-Golgi network, FIG. 5O): increase
proximity of AT1R/Rluc8 to Venus/Rab7 (BRET) ([2]; late endosomes/lysosomes, FIG. 5K): increase
proximity of AT1R/Rluc8 to Venus/Kras (BRET) ([2]; plasma membrane marker, FIG. 5A): marked reduction
proximity of AT1R/Rluc8 to Venus/Rab11a (BRET) ([2]; recycling endosomes, FIG. 5Q): substantial increase
proximity of AT1R/Rluc8 to Venus/Rab8 (BRET) ([2]; trans-Golgi network to plasma membrane, FIG. 5M): small increase at later time-points
